The values below come from publication PMC5557808 (Nature Communications, 2017).

The test system of one data set is human tongue. The note with it: cited from earlier work. How it is done: Sensor design was driven by physiological insights on taste. Structurally diverse molecules are bitter tasting, including polyphenols, flavonoids, or methylxanthines (caffeine)[3]. The main function of sensing bitter taste is linked to the detection of poisonous substances. This would readily explain why bitter taste is so sensitively recognized with some molecules being recognized in the nanomolar range[4]. The human tongue senses bitterness of denatonium down to concentrations of 10 nM with consumer products containing as little as 30–100 ppm[5]. […] To date, it is the mo s t bitter substance known and th e b itter taste can be detected at concentrations of 10 ppb 2. Because of its lower toxicity as co mpar ed to the b itter molecules brucine 3 or str ychnin e it is wid el y used as an additive for denaturing alcohol, deter gents, dis ...

Data set [1] deals with T1, MMP-8 (Homo sapiens, UniProt P22894).
T1 construct: purchased EMD Millipore Corporation (Billerica, MA)
T1 sequence (P22894 101-467): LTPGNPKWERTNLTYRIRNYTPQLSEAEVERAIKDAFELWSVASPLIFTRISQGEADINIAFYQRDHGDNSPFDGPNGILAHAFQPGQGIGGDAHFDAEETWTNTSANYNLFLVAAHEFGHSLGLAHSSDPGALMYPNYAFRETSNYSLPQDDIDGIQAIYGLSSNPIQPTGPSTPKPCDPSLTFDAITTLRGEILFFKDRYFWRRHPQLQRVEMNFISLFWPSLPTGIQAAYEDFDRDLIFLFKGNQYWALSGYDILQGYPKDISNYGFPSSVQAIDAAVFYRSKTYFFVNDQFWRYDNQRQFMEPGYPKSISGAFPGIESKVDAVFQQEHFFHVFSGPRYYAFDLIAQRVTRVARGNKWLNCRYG
Nature of the data set: MMP-8 cleavage of soluble PCL conjugates (HPLC decrease of main peak). It is filed as biochemical. The note with it: 900 ng/mL MMP-8, after 360 min; 0.5 mg/mL substrate, MMP-8 buffer pH 6.8-7.0, 37 °C under agitation; HPLC; mean, n = 8. As for the experimental part: Pro-MMPs (e.g., MMP-8, MMP-1, or MMP-9; used at 0.1 mg/mL and >100.0 mU/mg based on the manufacturer’s information) were activated with p-aminophenylmercuric acetate (APMA) (8). For that, a 10 mM stock solution of APMA was freshly prepared in 0.1 M NaOH and a 10:1 (v/v) ratio of the respective proenzyme and the APMA solution (MMP:APMA) was incubated for 3 h at 37 °C. The activity was confirmed using the MMP-8 detection kit (QuickZyme Biosciences, Leiden, the Netherlands). A stock solution (90 µg/mL) of the activated MMP was prepared (used for cleavage studies on the PCL or the fully assembled microparticle-PCL-tastant setup (sensor), in MMP-8 buffer (200 mM NaCl, 50 mM Tris-HCl, 5 mM CaCl2, 1 µM ZnCl2, 0.05% Brij 35 at pH 6.8–7.0). All MMP experiments are described in detail in the Supplementary Methods. […]
in water ( v/v)) and eluent B (0.1 % TFA in 2:3 water-acetonitrile (v/v)) and a gradient from 33 to 80% elu ent B within 30 minutes. UV absorption was r ead at λ = 280 nm or 220 nm. After freezing the samples at -80 °C, fr eeze- drying was performed on a Christ Alpha 1 -4 de vi ce (Martin Christ Gefriertrocknungs anlagen, Osterode am Harz, G e r ma n y) at a desublimers ’ te mperature of - 60 ° C, pressure of 1.030 mbar and processing temperature of 19 °C.
Pro-MMPs (e. g. MMP -8, MMP -1 or MMP-9; adapted to 0.1 mg/mL and > 100.0 mU/mg based on manufacturer information and when appropriate) were activated with APMA 8. For that, a 10 mM stock solution of APMA in 0.1 M NaOH was freshly prepared and a 10:1 (v/v) ratio of the r especti ve proenzyme and APMA solution (MMP:APMA) was incubated for 3 h at 37 °C. The activity was conf ir med using the MMP-8 detection kit (Q uic kZ ym e® Biosciences, Leiden, Netherlands). A stock solution (90 µg/mL) of the activated MMP was prepared (used for cleavage studies on the pr ot eas e-cleavable linker (PCL; e.g. Figure 2) or the fully assemb led microparticle -PCL- t ast ant setup (sensor; e.g. Figure 3) , in MMP -8 buffer (200 mM NaCl, 50 mM Tris-H Cl, 5 mM C aC l2, 1 µM ZnCl2, 0.05 % Brij35 at pH 6.8- 7.0). A ll MMP -8 exp eriments wer e performed as follo ws. 25 µg of the sensor ( see chap ter : Peptide-coupling to beads (Sensor)) in 100 µL MMP-buffer or 1 mg of FP LC -purified and lyophilized PCL as described dissolved 2 mL M MP -buffer resulting in a final concentration of 0.5 mg/ mL substrate was used. […]
Figure 2A , 3, 4B ). […]
(sensor) in co mpar ison to negative controls (the negative controls for the PCL an d sensor exper i men ts were b y incubation without MMP under otherwise identical conditions). The relative d ecreas e of the PCL’s ma in peak was char act er ized by HPLC (PCL) or of the sensor’s fluorescence b y FACS (sensor) in comparison to control. […]

The subject of data set [2] is MMP-1, MMP-8, MMP-9, MMP-13. As to the kind of experiment: MMP selectivity of the soluble PCL carboxyfluorescein conjugate. It counts as biochemical, human. The following applies: MMPs at 900 ng/mL, 60 min, 37 °C; HPLC. How it is done: Pro-MMPs (e.g., MMP-8, MMP-1, or MMP-9; used at 0.1 mg/mL and >100.0 mU/mg based on the manufacturer’s information) were activated with p-aminophenylmercuric acetate (APMA) (8). For that, a 10 mM stock solution of APMA was freshly prepared in 0.1 M NaOH and a 10:1 (v/v) ratio of the respective proenzyme and the APMA solution (MMP:APMA) was incubated for 3 h at 37 °C. The activity was confirmed using the MMP-8 detection kit (QuickZyme Biosciences, Leiden, the Netherlands). […]
Enzymatic reactions were stopped using 4 µL 250 mM ED TA in case of the sensor or heating in cas e of uncoupled PCL (95 °C for 15 minutes; the beads of the sensor would melt at h eatin g due to a different method used). Cleavage was analyzed by […] an al ysis (PCL) or by flow c yto metr y (sensor) in co mpar ison to negative controls (the negative controls for the PCL an d sensor exper i men ts were b y incubation without MMP under otherwise identical conditions). The relative d ecreas e of the PCL’s ma in peak was char act er ized by HPLC (PCL) or of the sensor’s fluorescence b y FACS (sensor) in comparison to control. […]

In data set [3] the test system is MMP-8. Nature of the data set: MMP-8 in MMP-8 buffer. The following applies: human, 37 °C, up to 22 h.
The subject of data set [4] is Leucine aminopeptidase (AP). Nature of the data set: AP-incubated peptide (without MMP-8). The following applies: porcine kidney.
Data set [5] concerns MMP-8. As to the kind of experiment: MMP-8 buffer (200 mM NaCl, 50 mM Tris-HCl, 5 mM CaCl2, 1 µM ZnCl2, 0.05% Brij 35 at pH 6.8–7.0). The note with it: human, 37 °C, up to 6 hours.
Data set [6] has as its system Leucine aminopeptidase from porcine kidney. Nature of the data set: AP buffer (50 mM Tris-HCl, 1 mM CaCl2 and 150 mM NaCl at pH 7.0). The following applies: 37 °C, up to 20 h.
The test system of data set [7] is Leucine aminopeptidase (AP). As to the kind of experiment: AP buffer (50 mM Tris-HCl, 1 mM CaCl2, and 150 mM NaCl at pH 7.0). The note with it: porcine kidney, 37 °C, up to 20 h.

With `CC[N+](CC)(CC(=O)Nc1c(C)cccc1C)Cc1ccccc1.[Cl-]` [Denatonium chloride], the “concentration at which the bitter taste can be detected” value with human tongue (ref 2 (Supplementary References)) is listed as 10 ppb.
`CC[N+](CC)(CC(=O)Nc1c(C)cccc1C)Cc1ccccc1` [Denatonium, Denatonium benzoate]: the “concentration down to which the human tongue senses bitterness” value with human tongue was 10 nM.
“Cf-GP QGIA GQ-A( N3)-Q [ID #1b, PCL carboxyfluorescein conjugate]”: on MMP-8 [1], the “Cleavage (%) of the PCL over incubation time, plateau” value was over 50%. Further, in data set [2], the “MMP sensitivity rank order of the soluble PCL conjugate” value is given as “MMP-8 = MMP-9 > MMP-13 > MMP-1”.
For De-GPQGIAGQ-A( N3)-Q, the cleaved bond entry with MMP-8 [3] and in the data set with MMP-8 [5] was “G-I” each time. In addition, the not cleaved result in data set [4] was “one HPLC-peak at 7.178 min with a mass of 1331.9 Da, as negative control”.
As to De-GPQGIAGQ-A(N3)-Q, the not cleaved result in data set [6] was “one HPLC peak, mass 1331.9 Da after AP incubation”.
For I AGQ-K-De, in data set [7], the fragment found result was “denatonium coupled to lysine”.
